In patent US20040266885A1, “Wood preservative compositions” (priority 2001, published 2004):
Several values for one entry are separate records, joined by “and”; a condition that tells them apart may be missing. Identical values can stand only once. Entries after “also recorded” stand apart in the source; their conditions may differ.

System: C. formosanus
Test: Laboratory termite test, modified ASTM 3345-74, soil/sand culture, NaOH carrier, blocks not leached; as to Termite Attack Rating: key: Score 0: No attack; Score 1: Attempted attack; Score 2: Slight attack; Score 3: Average attack; Score 4: Strong attack
Assay type: in vivo
Conditions: for termite survival / mortality at the end of the test period / Tunneling Activity / Visible Mortality / prevention of termite attack / restriction of termite damage: 4 weeks; for prevention of termite attack / restriction of termite damage: all concentrations used (1-10%); for Mean Rating (termite attack): mean of 4 specimens; for Mean Rating (termite attack) / Termite Attack Rating: 4 weeks soil/sand culture; for Termite Attack Rating: single specimen; for repellent effect (soil covering of test specimens): specimens treated with 5, 7 and 10% solutions only partially soil covered
Experimental: A further experiment was undertaken according to the modified ASTM 3345-74 test detailed in Example 2 with the following 6 changes to the protocol:
1. The solutions tested were as follows:
2. The incubation substrate was a soil/sand mixture (1:1) to which had been added 75 ml of de-ionised water. This substrate was chosen as being more representative of the laboratory conditions under which the wild caught termites (C. formosanus) were maintained.
3. The treated timber samples were positioned on plastic mesh on top of the soil substrate. This method of placement is that used in European Standard EN 117 and is more representative of the feeding conditions of the wild caught termites maintained in the laboratory.
4. 250 termites were used in each incubation vessel.
5. The wood block specimens were not subjected to a leaching process.
6. Evidence of termite tunneling activity and mortality was determined at completion of the incubation period only (4 weeks) and no examinations were undertaken for surface activity.

## O=S(=O)(c1cc(Br)c(O)c(Br)c1)c1cc(Br)c(O)c(Br)c1 [TBBS]
  termiticidal and termite repellent activity (conclusion): significant termiticidal and termite repellent activity
  termite survival / mortality at the end of the test period: significant termite mortality by the end of the test period
  prevention of termite attack / restriction of termite damage: significant attack was prevented by all concentrations; also recorded: a very significant effect in restricting termite damage
  repellent effect (soil covering of test specimens): a repellent effect was noted
Solution conc. 1%
  Tunneling Activity: Yes
  Visible Mortality: 67-100%
  Mean Rating (termite attack): 1.00
  Termite Attack Rating: 1
Solution conc. 3%
  Tunneling Activity: Yes
  Visible Mortality: 34-66% and 67-100%
  Mean Rating (termite attack): 0.5
  Termite Attack Rating: 1 and 0
Solution conc. 5%
  Tunneling Activity: Yes
  Visible Mortality: 67-100%
  Mean Rating (termite attack): 1.00
  Termite Attack Rating: 1
Solution conc. 7%
  Tunneling Activity: Yes
  Visible Mortality: 67-100% and 100%
  Mean Rating (termite attack): 0.75
  Termite Attack Rating: 1 and 0
Solution conc. 10%
  Tunneling Activity: Yes
  Visible Mortality: 34-66% and 67-100%
  Mean Rating (termite attack): 0.25
  Termite Attack Rating: 0 and 1

## Oc1c(Br)cc(Cc2cc(Br)c(O)c(Br)c2)cc1Br [TBBF]
  termiticidal and termite repellent activity (conclusion): significant termiticidal and termite repellent activity
  termite survival / mortality at the end of the test period: the majority of the termites were killed by the end of the test period
  prevention of termite attack / restriction of termite damage: significant attack was prevented by all concentrations; also recorded: a very significant effect in restricting termite damage
  repellent effect (soil covering of test specimens): a repellent effect
Solution conc. 1%
  Tunneling Activity: Yes
  Visible Mortality: 34-66%
  Mean Rating (termite attack): 1.50
  Termite Attack Rating: 3 and 1
Solution conc. 3%
  Tunneling Activity: Yes
  Visible Mortality: 34-66%
  Mean Rating (termite attack): 0.75
  Termite Attack Rating: 0 and 1
Solution conc. 5%
  Tunneling Activity: Yes
  Visible Mortality: 67-100%
  Mean Rating (termite attack): 0.5
  Termite Attack Rating: 0 and 1
Solution conc. 7%
  Tunneling Activity: Yes
  Visible Mortality: 67-100%
  Mean Rating (termite attack): 0.75
  Termite Attack Rating: 1 and 0
Solution conc. 10%
  Tunneling Activity: Yes
  Visible Mortality: 67-100%
  Mean Rating (termite attack): 0.5
  Termite Attack Rating: 1 and 0
Mean loading, solution concentration 1%, not leached
  toxic value, lower (concentration at which the wood is no longer sufficiently protected): 6.78 kg/m^3
Mean loading, solution concentration 3% (TBBF) or 1%, not leached
  toxic value, upper (lowest concentration which protects the wood): 20.53 kg/m^3
